In this test the test system is HUH7 cells. Kind of test: Proliferation inhibitory effect for HUH7 cells (SRB assay). Format: cell-based. As to conditions: Homo sapiens, Huh-7, 72 hours, GI50, read-out: IC50 HUH7 Cell Line. The method, then: Test Example 2: Measuring Inhibitory Effect of FGFR Inhibitor Using Cell Line
The test was carried out for identifying a proliferation inhibitory effect of the compound of the present invention for HUH7 cells. HUH7 cell lines were counted and 5.0×10^3 cells were inoculated per well in a 96 well plate. After the innoculation, the cells were cultured for 24 hours in a 37 □ and 5% carbon dioxide (CO2) incubator. On the next day, the synthesized compounds were each diluted and prepared. The diluted compounds were introduced to the cell lines inoculated the previous day by concentrations, and reacted for 72 hours in a 37 □ and 5% carbon dioxide (CO2) incubator. However, to a positive control to which the compound was not added, 0.1% dimethyl sulfoxide (DMSO) diluted with a medium was introduced. To a negative control plate, a trichloroacetic acid (TCA) solution was introduced, and fixed at 4 □. After reacting for 72 hours, the medium including the compound was removed, a TCA solution was added thereto, and the cells were fixed for 30 minutes to 60 minutes at 4 □. The TCA solution was discarded, the plate was washed off with distilled water and then dried in the air. A 0.4% sulforhodamin B (SRB) solution was added to the plate and dyed for 10 minutes at room temperature. The plate was washed off with tap water including a 1% acetic acid solution, and then dried in the air. A 10 mM Trizma base solution was added to dissolve the solid SRB. Using a microplate reader, optical density (O.D. value) was measured at 540 nm. A GI50 value of each of the compounds was calculated using GraphPad Prism V6.0 Software.

A value given as a limit tells only on which side of the number the result lay.

A word on the IC50: it is the concentration that inhibits the measured activity by half.

As to `C=CC(=O)Nc1ccc(F)c(F)c1Nc1ncc2cc(-c3c(F)c(OC)cc(OC)c3F)c3nccn3c2n1` [compound 78], the IC50 is 50 to 500 nM.
As to `C=CC(=O)Nc1cc(N2CCN(CC3CC3)CC2)ccc1Nc1ncc2cc(-c3c(Cl)c(OC)cc(OC)c3Cl)c3nccn3c2n1` [compound 43], the concentration for half-maximal inhibition (IC50) was below 50 nM.
Take `C=CC(=O)Nc1cc(Cl)ccc1Nc1ncc2cc(-c3c(Cl)c(OC)cc(OC)c3Cl)c3nccn3c2n1` [compound 15]: the concentration for half-maximal inhibition (IC50) was 50 to 500 nM.
`COc1cc(OC)c(Cl)c(-c2cc3cnc(Nc4ccc(N5CCOCC5)cc4NC(=O)/C=C\Cl)nc3n3ccnc23)c1Cl` [compound 47]: the IC50 was below 50 nM.
For the compound `C=CC(=O)Nc1cn(C)nc1Nc1cc2c(cn1)cc(-c1c(Cl)c(OC)cc(OC)c1Cl)c1nccn12` [compound 87], the IC50 was below 50 nM.
With `C=CC(=O)Nc1cc(F)cc(F)c1Nc1ncc2cc(-c3c(F)c(OC)cc(OC)c3F)c3nccn3c2n1` [compound 76], the 50% inhibitory concentration (IC50) lay in the range of 50 to 500 nM.
As to `C=CC(=O)N[C@H]1CCOC[C@H]1Nc1ncc2cc(-c3c(F)c(OC)cc(OC)c3F)c3nccn3c2n1` [compound 5], the IC50 is 50 to 500 nM.
In the case of `C=CC(=O)Nc1cc(N2CCOCC2)cc(F)c1Nc1ncc2cc(-c3c(Cl)c(OC)cc(OC)c3Cl)c3nccn3c2n1` [compound 67] it was 50 to 500 nM.
Next, `C=CC(=O)Nc1cc(OC2CCN(C)CC2)c(F)cc1Nc1ncc2cc(-c3c(Cl)c(OC)cc(OC)c3Cl)c3nccn3c2n1` [compound 62]: below 50 nM; `C=CC(=O)Nc1cc(OC2CCN(CC(F)(F)F)CC2)ccc1Nc1ncc2cc(-c3c(Cl)c(OC)cc(OC)c3Cl)c3nccn3c2n1` [compound 55]: 50 to 500 nM; `C=CC(=O)Nc1cc(C2CC2)ccc1Nc1ncc2cc(-c3c(Cl)c(OC)cc(OC)c3Cl)c3nccn3c2n1` [compound 21]: 50 to 500 nM.
On to `C=CC(=O)Nc1cc(OC)ccc1Nc1ncc2cc(-c3c(Cl)c(OC)cc(OC)c3Cl)c3nccn3c2n1` [compound 26], for which the half-maximal inhibitory concentration (IC50) was below 50 nM.
Regarding `C=CC(=O)Nc1cc(N2CCOCC2)ccc1Nc1ncc2cc(-c3c(F)c(OC)cc(OC)c3F)c3nccn3c2n1` [compound 73], the IC50 was below 50 nM.
`C=CC(=O)Nc1cc(C2CCN(C)CC2)ccc1Nc1ncc2cc(-c3c(Cl)c(OC)cc(OC)c3Cl)c3nccn3c2n1` [compound 23]: the IC50 is below 50 nM.
Take `COc1cc(OC)c(Cl)c(-c2cc3cnc(-c4cncc(N5CCOCC5)c4)nc3n3ccnc23)c1Cl` [compound 81]: the IC50 was above 500 nM.
Regarding `C=CC(=O)Nc1ccc(F)cc1Nc1ncc2cc(-c3c(Cl)c(OC)cc(OC)c3Cl)c3nccn3c2n1` [compound 12], the IC50 was 50 to 500 nM.
As to `C=CC(=O)Nc1cccc(Cl)c1Nc1ncc2cc(-c3c(F)c(OC)cc(OC)c3F)c3nccn3c2n1` [compound 79], the IC50 was in the range of 50 to 500 nM.
In the case of `COc1cc(OC)c(Cl)c(-c2cc3cnc(Nc4ccc(N5CCOCC5)cc4NC(=O)/C=C/CN(C)C)nc3n3ccnc23)c1Cl` [compound 34] it was 50 to 500 nM.
As to `C=CC(=O)Nc1cc(O[C@@H]2CCOC2)c(F)cc1Nc1ncc2cc(-c3c(Cl)c(OC)cc(OC)c3Cl)c3nccn3c2n1` [compound 59], the IC50 was below 50 nM.
For `C=CC(=O)Nc1cc(N2CCCC2)ccc1Nc1ncc2cc(-c3c(Cl)c(OC)cc(OC)c3Cl)c3nccn3c2n1` [compound 33], the IC50 was in the range of 50 to 500 nM.
Next, `C=CC(=O)Nc1cc(N2C[C@@H](C)O[C@@H](C)C2)ccc1Nc1cc2c(cn1)cc(-c1c(Cl)c(OC)cc(OC)c1Cl)c1nccn12` [compound 84]: below 50 nM; `C=CC(=O)Nc1cc(C(C)C)ccc1Nc1ncc2cc(-c3c(Cl)c(OC)cc(OC)c3Cl)c3nccn3c2n1` [compound 22]: 50 to 500 nM.
In the case of `C=CC(=O)Nc1cc(OC2CCN(CC)CC2)ccc1Nc1ncc2cc(-c3c(Cl)c(OC)cc(OC)c3Cl)c3nccn3c2n1` [compound 56], the IC50 is below 50 nM.
`C=CC(=O)Nc1cc(CC)ccc1Nc1ncc2cc(-c3c(Cl)c(OC)cc(OC)c3Cl)c3nccn3c2n1` [compound 20]: the IC50 is 50 to 500 nM.
